Laboratory results: patent US7592326B2, “Method for stimulating the immune, inflammatory or neuroprotective response” (priority 2004, dated 2009)

Legend:
[1] = system: p38 MAPK; test: Western blot signaling in human DCs: p38 MAPK; assay type: cell-based; conditions: 5 and 20 min treatment, FIG. 13A
Description: (§1) Human PBMC were isolated by Ficoll density gradient centrifugation from leukopacks supplied by the Department of Transfusion Medicine (Clinical Center, National Institute of Health, Bethesda, Md.). Monocytes were purified (>95%) from human PBMC with MACS CD14 monocyte isolation kit (Miltenyi Biotech Inc., Auburn, Calif.) according to the manufacturer's instruction. DCs were generated as described previously (Yang et al., 2001). In brief, DCs were generated by incubating purified monocytes at 2×10^5/ml in RPMI 1640 containing 10% FBS, 2 mM glutamine, 25 mM HEPES, 100 U/ml penicillin, 100 ug/ml streptomycin, 50 ng/ml recombinant human GM-CSF (PeproTech, Rocky Hill, N.J.), and 50 ng/ml recombinant human IL-4 (PeproTech) at 37° C. in a CO2 (5%) incubator for 7 days. On day 3 and 5 of the incubation, half of the culture medium was replaced with pre-warmed (37° C.) fresh GM-CSF- and IL-4-containing medium. On day 7, DCs were collected, washed three times with PBS, and serum-starved for 8 hours by incubating in serum-free RPMI-1640 containing GM-CSF and IL-4 (2×10^5/ml) at 37° C. in a CO2 (5%) incubator. Subsequently, DCs (2×10^6/sample) were incubated at 37° C. in the absence or presence of c-di-GMP or GMP (Sigma, St. Louis, Mo.) at concentrations specified for 5 or 30 minutes. […]

[2] = assay type: in vitro ADME, human
Description: Commercially supplied pooled human serum (100 uL) (Cambrex Bio Science Walkersville, Inc.) was diluted in ion-exchanged water. An aliquot of the resulting human serum solution was subjected to HPLC analysis (conditions: COSMOSIL 5C18-AR-II column (4.6×200 mm); buffer A; buffer B, 80% acetonitrile in water; gradient, 0-10 min A 100%, 10-60 min A:B=100:0 to A:B=40:60 in 50 min; detection 254 nm, flow rate, 1.0 mL/min, temperature 40° C.). Separately, a 100 uM of c-di-GMP solution in human serum was prepared by adding 100 uL of a 500 uM c-di-GMP aqueous solution to a mixture of 390 uL of human serum and 10 uL of 40 mM 2-methylbenzimidazole (an internal standard for estimating the extent of decomposition of c-di-GMP) in methanol. An aliquot of the test solution was diluted immediately after the preparation solution and then heated at 100° C. for 5 min to quench activity of enzymes. The resulting test sample was subjected to HPLC analysis after 24 h treatment. Peaks that appeared in both analyses were compared. Results are based on 3 independent experiments.

[3] = system: C. neoformans strain 52; test: Murine model of C. neoformans infection (proposed procedure)
[4] = system: NF-κB; test: Western blot signaling in human DCs: NF-κB (I-κBα degradation); assay type: cell-based; conditions: up to 30 min
Description: as §1

[5] = system: PR8 followed by D39 or NCH57; test: Secondary bacterial pneumonia following influenza infection in mice (proposed); assay type: in vivo; conditions: 200 nmol/animal 24- and 48 hours prior to bacterial challenge
Description: To show the effect of c-di-GMP secondary bacterial pneumonia following influenza infection, groups of 6 mice are infected with 100 TCID50 of PR8 and challenged 7 days later with either 1000 CFU of D39, or 1×10^7 CFU of NCH57 and followed twice daily for weight loss, development of secondary bacterial infections by bioluminescent imaging, and mortality. One group of mice is treated with c-di-GMP 24- and 48 hours (e.g., orally, intransal, i.p, s.q. i.m.) prior to bacterial challenge with 200 nmol/animal.

[6] = system: S. aureus strain NCH57; test: Mouse S. aureus pneumonia (proposed); assay type: in vivo; conditions: 200 nmol 24- and 48 hours prior; 1×10^9 CFU NCH57
[7] = system: immature DCs (iDC) and mature DCs (mDC); test: Cytokine production by dendritic cells (sandwich ELISA of supernatants); assay type: cell-based, human; conditions: 24 h
Description: Analysis of supernatant cytokine content was performed both on treated (c-di-GMP) or untreated saline control (NaCl) immature DCs (iDC) and mature DCs (mDC). Culture supernatants were collected after 24 h treatment and IL-1β, IL-6, IL-10, IL-12, and TNF- α contents were measured using a sandwich ELISA according to the manufacturer's instructions.

[8] = system: influenza virus A/Puerto Rico/8/34 (H1N1, PR8); conditions: in vivo

Nc1nc(=O)c2ncn([C@@H]3OC4COP(=O)(O)O[C@H]5[C@@H](O)[C@H](n6cnc7c(=O)nc(N)[nH]c76)O[C@@H]5COP(=O)(O)OC4C3O)c2[nH]1 (stereo partly shown) [c-di-GMP, Bis(3′→5′)-cyclic diguanylic acid]
activation of p38 MAPK (phospho-p38) [1]: activated
stability in human serum [2]: stable
pathogen burden compared with controls ([3]; C57BL/6 mice): significantly reduced
pulmonary eosinophilia ([3]; C57BL/6 mice): significantly reduced
IFN production and total numbers of CD4^+/IFN-γ^+ cells ([3]; lung, C57BL/6 mice): increased
survival ([3]; oral, intranasal, i.p., i.v., s.q., or i.m. administration): increase survival
activation of NF-κB (I-κBα degradation) [4]: did not activate
survival [5]: greater survival
survival [6]: greater survival
IL-10 expression ([7]; DCs): no major effect
production of TNF-α ([7]; iDCs, 5 μM, FIG. 3A): dramatic increase
IL-12 secretion ([7]; immature DCs): undetectable
IL-12 production ([7]; mDCs (LPS-treated), 50 μM): dramatic increase
IL-6 production ([7]; mDCs (LPS-treated), 100 μM, FIG. 3B): increase
IL-1β production ([7]; mDCs (LPS-treated), FIG. 3B): major increase
outcome compared to control mice [8]: increased survival, less weight loss
